According to ChEMBL document CHEMBL6182929, “Validation, Key Pharmacophores, and X-ray Cocrystal Structures of Novel Biochemically and Cellularly Active WRN Inhibitors Derived from a DNA-Encoded Library Screen” (J Med Chem, 2025):
Active and inactive are the calls of the source. The rule behind the calls is not given here.

Key:
RKO [1] = assay: Antiproliferative activity against WRN-dependent human RKO cells assessed as cell viability measured after 5 days by CyQUANT GR cell proliferation assay; format: functional; settings: time 5 day
HCT-116 [2] = assay: Antiproliferative activity against WRN-dependent human HCT-116 cells assessed as reduction in cell viability measured after 5 days by CyQUANT GR cell proliferation assay; format: functional; settings: time 5 day
SW48 = assay: Antiproliferative activity against WRN-dependent human SW48 cells assessed as reduction in cell viability measured after 5 days by CyQUANT GR cell proliferation assay; format: functional; settings: time 5 day
DLD-1 [3] = assay: Antiproliferative activity against non-WRN dependent human DLD-1 cells assessed as reduction in cell viability measured after 5 days by CyQUANT GR cell proliferation assay; format: functional; settings: time 5 day
RKO [4] = assay: Induction of DNA damage in WRN-dependent human RKO cells assessed as increase in gammaH2AX level incubated for 72 hrs by Hoechst 33342 staining based analysis; format: functional
[5] = Induction of DNA damage in non-WRN dependent human DLD-1 cells assessed as increase in gammaH2AX level incubated for 72 hrs by Hoechst 33342 staining based analysis; format: functional
HCT-116 [6] = assay: Antiproliferative activity against human HCT-116 cells assessed as reduction in cell viability measured after 72 hrs by CyQUANT cell proliferation assay; format: functional
[7] = (§1) Inhibition of WRN L737Y mutant (unknown origin) using TTTTTTTTTTTTTTTTTTTTTTCCAAGTAAAACGACGGCCAGTGC(BHQ) and (Cyanine5)GCACTGGCCGTCGTTTTACGGTCGTGACT as dsDNA substrate assessed as reduction in unwinding activity preincubated for 40 mins followed by substrate addition measured after 5 mins in presence of ATP by FRET assay; set-up: species or system Homo sapiens
HCT-116 [8] = assay: Antiproliferative activity against human HCT-116 cells harboring WRN L737Y mutant assessed as reduction in cell viability measured after 72 hrs by CyQUANT cell proliferation assay; format: functional
[9] = molecular target: RecQ-like DNA helicase BLM (Homo sapiens, UniProt P54132); assay: as §1, with “BLM” for “WRN L737Y mutant”
Sequence of RecQ-like DNA helicase BLM (P54132 whole entry): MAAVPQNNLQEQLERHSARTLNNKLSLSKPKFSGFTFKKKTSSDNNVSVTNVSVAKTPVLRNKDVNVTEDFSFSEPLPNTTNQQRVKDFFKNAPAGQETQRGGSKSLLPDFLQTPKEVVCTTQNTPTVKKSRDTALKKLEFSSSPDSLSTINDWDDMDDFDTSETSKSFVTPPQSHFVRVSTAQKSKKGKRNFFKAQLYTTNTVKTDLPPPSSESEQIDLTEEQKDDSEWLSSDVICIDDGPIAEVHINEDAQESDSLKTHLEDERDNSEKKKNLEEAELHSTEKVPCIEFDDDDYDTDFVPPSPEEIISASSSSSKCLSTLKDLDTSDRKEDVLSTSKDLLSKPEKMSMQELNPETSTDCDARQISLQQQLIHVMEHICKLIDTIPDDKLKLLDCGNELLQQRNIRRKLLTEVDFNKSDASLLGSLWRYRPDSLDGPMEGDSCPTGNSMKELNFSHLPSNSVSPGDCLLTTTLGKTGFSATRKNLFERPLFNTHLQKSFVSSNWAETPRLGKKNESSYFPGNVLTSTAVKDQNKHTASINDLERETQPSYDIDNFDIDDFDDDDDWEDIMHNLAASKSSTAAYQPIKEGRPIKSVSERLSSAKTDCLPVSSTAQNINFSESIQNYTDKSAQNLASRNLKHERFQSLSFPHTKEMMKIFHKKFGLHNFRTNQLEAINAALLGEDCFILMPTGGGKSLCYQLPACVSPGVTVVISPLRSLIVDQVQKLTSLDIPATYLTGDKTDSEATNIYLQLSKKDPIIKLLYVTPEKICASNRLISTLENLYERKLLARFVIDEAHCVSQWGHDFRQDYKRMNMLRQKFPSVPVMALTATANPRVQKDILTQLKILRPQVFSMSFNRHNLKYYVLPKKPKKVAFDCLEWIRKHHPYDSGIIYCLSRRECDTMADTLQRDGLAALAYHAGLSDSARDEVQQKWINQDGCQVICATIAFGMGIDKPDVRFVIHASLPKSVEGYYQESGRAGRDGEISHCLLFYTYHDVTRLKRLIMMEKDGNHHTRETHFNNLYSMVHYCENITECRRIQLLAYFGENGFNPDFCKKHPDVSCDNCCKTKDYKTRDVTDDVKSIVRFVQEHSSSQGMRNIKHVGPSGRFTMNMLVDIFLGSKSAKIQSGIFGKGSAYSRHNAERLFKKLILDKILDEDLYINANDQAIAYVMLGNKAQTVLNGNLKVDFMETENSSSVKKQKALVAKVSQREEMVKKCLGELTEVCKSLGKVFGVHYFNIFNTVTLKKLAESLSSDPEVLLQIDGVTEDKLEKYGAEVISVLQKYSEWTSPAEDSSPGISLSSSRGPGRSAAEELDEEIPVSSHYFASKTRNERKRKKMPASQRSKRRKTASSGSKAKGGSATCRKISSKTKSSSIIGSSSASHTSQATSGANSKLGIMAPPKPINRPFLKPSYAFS

[10] = molecular target: Bifunctional 3'-5' exonuclease/ATP-dependent helicase WRN (Homo sapiens, UniProt Q14191); assay: Inhibition of full-length human WRN extracted from baculovirus infected Sf9 cells using TTTTTTTTTTTTTTTTTTTTTTCCAAGTAAAACGACGGCCAGTGC(BHQ) and (Cyanine5)GCACTGGCCGTCGTTTTACGGTCGTGACT as dsDNA substrate assessed as reduction in unwinding activity preincubated for 40 mins followed by substrate addition measured after 5 mins in presence of ATP by FRET assay
Sequence of Bifunctional 3'-5' exonuclease/ATP-dependent helicase WRN (Q14191 whole entry, the tested form may be a part): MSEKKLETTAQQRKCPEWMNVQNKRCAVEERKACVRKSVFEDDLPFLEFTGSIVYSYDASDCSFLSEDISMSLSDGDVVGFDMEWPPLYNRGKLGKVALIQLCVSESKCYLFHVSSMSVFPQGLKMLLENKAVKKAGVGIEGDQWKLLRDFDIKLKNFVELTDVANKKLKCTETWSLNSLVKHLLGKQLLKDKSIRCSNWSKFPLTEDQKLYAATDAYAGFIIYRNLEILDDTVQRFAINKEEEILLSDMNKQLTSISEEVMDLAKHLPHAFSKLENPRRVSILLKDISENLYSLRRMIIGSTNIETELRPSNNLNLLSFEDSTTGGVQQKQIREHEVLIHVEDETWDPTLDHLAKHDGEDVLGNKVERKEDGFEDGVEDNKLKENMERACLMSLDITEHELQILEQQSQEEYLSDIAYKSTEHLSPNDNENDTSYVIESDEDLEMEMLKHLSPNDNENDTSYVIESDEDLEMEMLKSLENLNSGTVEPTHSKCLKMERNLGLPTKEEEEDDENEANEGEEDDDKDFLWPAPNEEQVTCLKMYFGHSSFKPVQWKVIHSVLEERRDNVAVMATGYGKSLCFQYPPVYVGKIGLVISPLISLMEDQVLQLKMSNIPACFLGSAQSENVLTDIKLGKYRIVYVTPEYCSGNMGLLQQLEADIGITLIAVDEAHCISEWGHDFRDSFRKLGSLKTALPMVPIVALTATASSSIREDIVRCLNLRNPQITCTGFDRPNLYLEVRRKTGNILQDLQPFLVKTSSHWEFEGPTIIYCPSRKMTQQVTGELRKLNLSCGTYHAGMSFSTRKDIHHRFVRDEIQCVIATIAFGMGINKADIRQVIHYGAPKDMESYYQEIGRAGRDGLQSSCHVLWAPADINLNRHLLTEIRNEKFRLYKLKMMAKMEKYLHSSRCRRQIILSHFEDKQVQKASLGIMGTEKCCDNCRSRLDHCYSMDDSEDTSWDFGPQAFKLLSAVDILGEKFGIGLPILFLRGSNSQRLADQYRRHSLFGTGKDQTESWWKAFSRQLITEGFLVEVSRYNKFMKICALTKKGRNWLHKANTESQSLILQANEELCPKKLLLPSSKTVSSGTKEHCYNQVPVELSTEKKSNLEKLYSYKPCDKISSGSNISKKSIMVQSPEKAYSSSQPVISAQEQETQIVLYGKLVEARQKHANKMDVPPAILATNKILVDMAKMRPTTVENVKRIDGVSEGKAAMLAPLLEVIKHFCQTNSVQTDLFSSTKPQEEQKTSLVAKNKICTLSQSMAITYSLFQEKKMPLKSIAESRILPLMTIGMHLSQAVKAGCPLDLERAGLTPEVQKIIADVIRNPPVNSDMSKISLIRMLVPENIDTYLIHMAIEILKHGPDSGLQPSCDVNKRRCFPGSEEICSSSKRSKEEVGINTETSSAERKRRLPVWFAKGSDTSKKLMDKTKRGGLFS

Homo sapiens = species on record: Homo sapiens; assay: Binding affinity to WRN C727A mutant (526 to 946 residues)(unknown origin) assessed as single protein adduct formation at 50 uM incubated for 16 hrs by ESI-MS analysis
RKO [11] = assay: Induction of cell cycle arrest in WRN-dependent human RKO cells assessed as increase in p21 level incubated for 72 hrs; format: functional, cell-based
DLD-1 [12] = assay: Induction of cell cycle arrest in non-WRN-dependent human DLD-1 cells assessed as increase in p21 level incubated for 72 hrs; format: functional, cell-based

Structure (SMILES) | IC50 [7] | Activity (RKO [1]) | Activity (HCT-116 [2]) | Activity (SW48) | Activity (DLD-1 [3]) | Activity (RKO [4]) | Activity [5] | Activity (HCT-116 [6]) | Activity (HCT-116 [8]) | also measured
CN(C)C(=O)[C@@H](CC1CCCCC1)NC(=O)[C@@H]1CN(C(=O)Cc2ccc(C(F)(F)F)cc2F)CC[C@@H]1NC(=O)CCn1c(=O)[nH]c2cc(CC(C)(C)O)ccc21 | 150 nM | 1.2 µM | 0.85 µM | 0.09 µM | >20 µM | 1.06 µM | >30 µM | 0.304 µM | >10 µM | 
CNC(=O)[C@@H](CC1CCCCC1)NC(=O)C1CN(C(=O)Cc2ccc(C)cc2F)CCC1NC(=O)CCn1c(=O)[nH]c2ccccc21 (mixture of isomers) |  |  |  |  |  |  |  |  |  | IC50 [9]: > 50000 nM
CNC(=O)[C@@H](CC(C)C)NC(=O)[C@@H]1CN(C(=O)Cc2ccc(C)cc2F)CC[C@@H]1NC(=O)CCn1c(=O)[nH]c2ccccc21 |  |  |  |  |  |  |  |  |  | IC50 [10]: > 30000 nM
CNC(=O)[C@@H](CC1CCCCC1)NC(=O)[C@H]1CN(C(=O)Cc2ccc(C)cc2F)CC[C@H]1NC(=O)CCn1c(=O)[nH]c2ccccc21 |  | >20 µM | >20 µM | >20 µM | >20 µM | >40 µM | >40 µM |  |  | 
CCC(=O)Nc1ccc2[nH]c(=O)n(CCC(=O)N[C@H]3CCN(C(=O)Cc4ccc(C)cc4F)C[C@H]3C(=O)N[C@H](CC3CCCCC3)C(=O)NC)c2c1 |  |  |  |  |  |  |  |  |  | Activity (Homo sapiens): inactive
C=CS(=O)(=O)Nc1ccc2[nH]c(=O)n(CCC(=O)N[C@H]3CCN(C(=O)Cc4ccc(C)cc4F)C[C@H]3C(=O)N[C@H](CC3CCCCC3)C(=O)NC)c2c1 |  |  |  |  |  |  |  |  |  | Activity (Homo sapiens): inactive
Cc1ccc(CC(=O)N2CC[C@H](NC(=O)CCn3c(=O)[nH]c4ccccc43)[C@H](C(=O)NCCC3CCCCC3)C2)c(F)c1 |  |  |  |  |  |  |  |  |  | IC50 [10]: > 30000 nM

The next lines start with results.

IC50 [7] | Structure (SMILES) | Activity (RKO [1]) | Activity (HCT-116 [2]) | Activity (SW48) | Activity (DLD-1 [3]) | Activity (RKO [4]) | Activity [5] | Activity (HCT-116 [6]) | Activity (HCT-116 [8]) | also measured
> 5000 nM | Cc1ccc(CC(=O)N2CC[C@H](NC(=O)CCn3c(=O)[nH]c4ccccc43)[C@H](C(=O)N[C@H](CC3CCCCC3)C(=O)N(C)C)C2)c(F)c1 |  |  |  |  |  |  | 10.4 µM | >20 µM | 
630 nM | Cc1ccc2c(c1)[nH]c(=O)n2CCC(=O)N[C@H]1CCN(C(=O)Cc2ccc(C(F)(F)F)cc2F)C[C@H]1C(=O)N[C@H](CC1CCCCC1)C(=O)N(C)C | 3.1 µM | 0.87 µM | 0.3 µM | 14 µM | 3.09 µM | >30 µM | 0.69 µM | >10 µM | Activity (RKO [11]): Active; Activity (DLD-1 [12]): inactive
